Data as given in US7572770B2, “Use of an interleukin 1 receptor antagonist and/or pyrrolidinedithiocarbamate for the treatment or prophylaxis of type 2 diabetes” (University of Zurich, priority 2002, dated 2009).

How the values were obtained:
IL-1β = IL-1β release and expression in human islets exposed to leptin; type: cell-based
Protocol: Islet isolation and cell culture. Islets were isolated from pancreases of ten organ donors at the Department of Surgery, University of Geneva Medical Center, as described (32-34). The islet purity was >95%, as judged by dithizone staining (if this degree of purity was not primarily achieved by routine isolation, islets were handpicked). […] For long-term in vitro studies, the islets were cultured on extracellular matrix-coated plates derived from bovine corneal endothelial cells (Novamed Ltd., Jerusalem, Israel), allowing the cells to attach to the dishes and spread, preserving their functional integrity (7;35). Islets were cultured in CMRL 1066 medium containing 100 U/ml penicillin, 100 μg/ml streptomycin and 10% fetal calf serum (Invitrogen Corporation, Paisley, U.K.), hereafter referred to as culture medium. Two days after plating, when most islets were attached and began to flatten, the medium was changed to culture medium containing 5.5, 11.1 or 33.3 mM glucose. In some experiments, islets were additionally cultured with 5, 10 or 500 nM rh leptin (PeproTech, London, UK), 500 ng/ml rh IL-1Ra (R&D Systems Inc., Minneapolis, Minn.) or 50 nM small interfering RNA (siRNA) as described below.
Detection of IL-1Ra and IL-1β expressing cells. Pancreases from routine necropsies were immersion-fixed in formalin, followed by paraffin embedding. In parallel, isolated human were cultured in a suspension for 48 hours and exposed to 10 nM leptin or 33.3 mM glucose, islets were fixed in Bouin solution for 15 min, resuspended in 40 μl of 2% melted agarose in PBS (40° C.), followed by rapid centrifugation and paraffin embedding. Sections were deparaffinized, rehydrated and then incubated in methanol for 4 min. Human islets cultured on extracellular matrix for 4 days were washed in PBS, fixed in 4% paraformaldehyde (30 min, room temperature) followed by permeabilization with 0.5% triton X-100 (4 min, room temperature). Pancreas and islet sections and cultured cells were double-labeled for IL-1Ra or IL-1β and insulin, CD68, glucagon or somatostatin by 1 h of exposure to 10% bovine serum albumin followed by incubation (1 h, 37° C.) with biotinylated goat anti-IL-1Ra or mouse anti-IL-1β antibodies (R&D Systems Inc.). […]
RNA extraction and RT-PCR. […] PCR conditions were: denaturation for 30 seconds at 94° C., annealing for 30 seconds at 60° C., and elongation for 30 seconds at 72° C., followed for real time PCR by quantification for 5 seconds at 82° C.; repetition for 40 cycles. […] For quantitative analysis, we used the LightCycler quantitative PCR system (Roche) and performed quantitative PCR with a commercial kit (LightCycler-DNA Master SYBR Green I; Roche). […]

human islets β-cells = test: Detection of IL-1β expressing β-cells in cultured human islets (double immunostaining); type: cell-based; details: 33.3 mM glucose, 4 days, co-incubation with IL-1Ra
Protocol: Islet isolation and culture. Islets were isolated from pancreases of eleven organ donors at the Department of Surgery, University of Geneva Medical Center, as described (32-34). The islet purity was >95%, as judged by dithizone staining (if this degree of purity was not primarily achieved by routine isolation, islets were handpicked). […] For long-term in vitro studies, the islets were cultured on extracellular matrix-coated plates derived from bovine corneal endothelial cells (Novamed Ltd., Jerusalem, Israel), allowing the cells to attach to the dishes and spread, preserving their functional integrity (7;35). Islets were cultured in CMRL 1066 medium containing 100 U/ml penicillin, 100 μg/ml streptomycin and 10% fetal calf serum (Gibco, Gaithersburg, Md.), hereinafter referred to as culture medium. Two days after plating, when most islets were attached and began to flatten, the medium was changed to culture medium containing 5.5, 11.1 or 33.3 mM glucose. In some experiments, islets were additionally cultured with 2 ng/ml recombinant human IL-1β, 1000 U/ml recombinant human IFNγ (ReproTech EC Ltd, London, UK), 500 ng/ml IL-1β receptor antagonist (IL-1Ra) (R&D Systems Inc., Minneapolis, Minn.), 1 ng/ml membrane bound Fas-ligand (FasL) (36) (upstate biotechnology, Lake Placid, N.Y.) or with 100 μM pyrrolidinedithiocarbamate (PDTC; Sigma; 2 h per 2 d of culture). […]

## leptin: rh leptin (PeproTech); protein encoded by the ob gene
IL-1β; 10 nM leptin, 48 hours
  IL-1β expression in β-cells (triple immunostaining): induced IL-1β expression in TUNEL-positive β-cells
IL-1β; leptin
  IL-1β RNA expression of islets (quantitative RT-PCR): not significantly changed
IL-1β; leptin, 15 hours
  IL-1β release into culture medium: increased IL-1β release
IL-1β; leptin, 48 hours
  IL-1β release into culture medium: remained increased

## Interleukin 1 receptor antagonist [IL-1Ra]
Human islets β-cells
  IL-1β positive β-cells (double immunostaining): displayed similar results
